{"source": "paper PMC6836034", "about": "“The Effect of Silymarin Flavonolignans and Their Sulfated Conjugates on Platelet Aggregation and Blood Vessels Ex Vivo” (Nutrients, 2019)", "target": "T1, COX-1 (cyclooxygenase-1) (Ovis aries, UniProt P05979)", "T1 construct": "gene PTGS1", "T1 sequence (P05979 25-600)": "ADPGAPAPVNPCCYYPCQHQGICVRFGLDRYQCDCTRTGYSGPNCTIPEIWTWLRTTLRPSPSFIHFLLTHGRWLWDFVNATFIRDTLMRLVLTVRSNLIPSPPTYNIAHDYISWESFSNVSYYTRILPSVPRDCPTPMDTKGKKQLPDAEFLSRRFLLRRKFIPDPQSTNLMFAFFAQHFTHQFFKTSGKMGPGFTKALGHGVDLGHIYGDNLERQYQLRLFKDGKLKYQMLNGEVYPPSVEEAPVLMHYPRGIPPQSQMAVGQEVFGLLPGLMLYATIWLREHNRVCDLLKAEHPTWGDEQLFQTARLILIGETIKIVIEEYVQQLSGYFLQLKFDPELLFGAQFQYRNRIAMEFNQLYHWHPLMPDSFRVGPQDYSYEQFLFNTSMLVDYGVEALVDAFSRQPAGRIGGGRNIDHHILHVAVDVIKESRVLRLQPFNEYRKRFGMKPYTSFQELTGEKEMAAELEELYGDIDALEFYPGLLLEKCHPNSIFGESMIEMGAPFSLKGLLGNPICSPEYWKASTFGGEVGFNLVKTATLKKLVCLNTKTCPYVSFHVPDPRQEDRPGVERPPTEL", "assay": "biochemical"}
{"smiles": "COc1cc(C2Oc3cc(-c4oc5cc(O)cc(O)c5c(=O)c4O)ccc3OC2CO)ccc1O", "note": "(racemic) [2,3-dehydrosilybin]", "values": [{"measurement": "IC50", "value": "25.2 ± 10.4", "unit": "µM"}]}
